The values that follow come from PubChem BioAssay (NCI).

Experiment in all cases: NCI-60 cell line screen, 48 h
Assay [1] deals with MCF7 breast.
Assay [2] concerns MDA-MB-435.
In assay [3] the test system is DLD-1 colon.
Assay [4] concerns LXFL 529 NSCLC.
Assay [5] deals with KM20L2 colon.
Assay [6] relates to XF 498 CNS.
Assay [7] concerns MDA-N.

Several values for one entry are separate records, joined by “and”; a condition that tells them apart may be missing. Equal entries are not always repeated.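 Results reflect a 48-hour exposure of cells in 96-well plates to compound at five concentrations. GI50 = concentration required for 50% inhibition of growth. Definition used: TGI = concentration required for complete inhibition of growth.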

`CC/C(Cc1ccccc1)=C(\c1ccc(OCCN2CCCCCC2)cc1)c1ccc(OC(=O)NCc2ccccc2)cc1`: in assay [1], the GI50 was 0.25 µM and the TGI turned out to be 5.33 µM. In addition, in assay [2], the GI50 is 1.54 µM and the TGI was found to be 5.08 µM.
The corresponding values for `C=CC(=O)Nc1ccc(Nc2nccc(-c3ccc(N4CCCC4)c(C#N)c3)n2)cc1` are 9.55 µM, over 25 µM, 7.09 µM and over 25 µM.
Consider `CC(=O)N1CCN(C2=Nc3ccccc3CO2)C1=S`, for which the figures for the GI50 in assay [1] and in assay [2] were 38.2 µM and 81.4 µM, respectively. The TGI in assay [1] and in assay [2] was over 100 µM throughout.
With `Cc1c2cnccc2c(C)c2c1c1cc(C3OCCCO3)ccc1n2C`, in assay [1], the GI50 was 0.255 µM and the TGI was 1.35 µM. Further, in assay [2], the GI50 was 0.411 µM and the TGI was determined as 1.55 µM.
The corresponding values for `CC(C)(C)OC(=O)NCCNC1=CC(=O)c2nc3ccccc3c3ccnc1c23` are 7.42 µM, 24.4 µM, 15.7 µM and 37.7 µM.
In the case of `CC1=CCC[C@@]2(C)C(CC[C@@H]2C(C)/C=C/C(C)C)c2ccc(cc2C(=O)O)C[C@@H](O)CC1` (stereo not given in full), the results for the TGI in assay [3] and in assay [4] were 14 µM and 23.9 µM, respectively.
Take `Cc1ccc(C)c(NC(=O)C(=O)CC(=O)C2CCOC2=O)c1` (stereo not given): the TGI in assay [5], in assay [6], in assay [3] and in assay [4] was over 100 µM each time.
For `CC1=NN(C(=O)c2ccccc2O)C(=O)/C1=C/c1ccc([N+](=O)[O-])cc1`, the TGI in assay [5], in assay [6], in assay [3], in assay [1], in assay [2] and in assay [4] was over 100 µM throughout. This compound also registered a TGI in assay [7] of over 100 µM. Also, the GI50 is 0.392 µM in assay [1] and 0.0903 µM in assay [7].
Take `COc1cc2c(/C=N\N=C(N)N)c(Cl)[nH]c2cc1C`: the GI50 was 6.47 µM in assay [1] and 12.2 µM in assay [2]. Further, the TGI was 27.5 µM in assay [1] and 26.2 µM in assay [2].
On the same counts, the results for `COc1ccc(C#Cc2ccccc2C#CCCCCO)cc1` are 27.2 µM, 21.1 µM, 59.1 µM and 38.9 µM.
As for `COc1cc2c(cc1OC)C13CCN4C=C5CCOC6CC(=O)N2C1C6C5CC43` (stereo not given), the TGI in assay [1], in assay [2] and in assay [7] was over 100 µM in each case.
For `O=C(c1ccc2ccccc2c1O)N1CCCCC1`, the TGI in assay [1] and in assay [2] was over 100 µM in each case.
Regarding `CN(C)CCCOc1ccccc1NC1=C(Cl)C(=O)C(Nc2ccccc2OCCCN(C)C)=C(Cl)C1=O`, in assay [1], the GI50 was 0.175 µM and the TGI is 0.398 µM. In addition, in assay [2], the GI50 was 0.636 µM and the TGI turned out to be 1.44 µM.
In the case of `COc1cc(C(=O)OCCCCCCCCCCC[P+](c2ccccc2)(c2ccccc2)c2ccccc2)ccc1O`, in assay [2], the GI50 is 0.312 µM and the TGI is 1.24 µM.
Turning to `Nc1ncnc2c1ncn2C1OC(COP(=O)(O)CP(=O)(O)O)C(O)C1O` (stereo not given), the TGI in assay [1], in assay [2] and in assay [7] was over 100 µM throughout.
For the compound `CO[C@H](C(=O)[C@@H](O)[C@@H](C)O)[C@@H]1Cc2cc3cc(O[C@H]4C[C@@H](O[C@H]5C[C@@H](O)[C@H](O)C(C)O5)[C@H](O)C(C)O4)c(C)c(O)c3c(O)c2C(=O)[C@H]1O[C@H]1C[C@@H](O[C@H]2C[C@@H](O[C@H]3C[C@@H](OC)[C@H](O)C(C)O3)[C@@H](O)C(C)O2)C(O)(O)C(C)O1` (stereo not given in full), in assay [1], the GI50 is 0.0108 µM and the TGI was over 9.61 µM. Besides, in assay [2], the GI50 was 0.171 µM and the TGI is 3.53 µM.
On the same counts, the results for `Cc1c2cc[nH]c(=O)c2c(C)c2c1[nH]c1cc(OCCN3CCN(C)CC3)ccc12` are 0.577 µM, 6.73 µM, 1.06 µM and 2.43 µM.
The corresponding values for `O=C(c1ccccc1)c1c(NCC(O)CN2CCCC2)n(Cc2ccccc2)c(=O)n(Cc2ccccc2)c1=O` (stereo not given) are 42.5 µM, over 100 µM, 17.4 µM and 32.8 µM.
The corresponding values for `O=[N+]([O-])c1ccc(Nc2ccccc2-c2ccccc2)c2nonc12` are 15.3 µM, over 72.4 µM, 13.9 µM and 45.9 µM.
For `CCSc1nnc2c(-c3ccccc3)n[nH]c2n1`, the TGI in assay [1], in assay [2] and in assay [7] was over 100 µM each time.
For the compound `O=[As](O)(O)c1ccc(NCc2ccccc2)cc1`, the TGI in assay [1], in assay [2] and in assay [7] was over 100 µM throughout.
For `CN1CCc2cc3c(cc2C1O)OCO3` (stereo not given), the TGI in assay [1] is 23.3 µM and > 100 µM; in assay [2], 11.9 µM and > 100 µM.
`COC(=O)Cc1cc(OC)c(OC)cc1Br`: the TGI in assay [5], in assay [3] and in assay [4] was over 100 µM each time.
For the compound `Cc1ccc(C(=O)N(CCCN)[C@@H](c2nc3cc(Cl)ccc3c(=O)n2Cc2ccccc2)C(C)C)cc1`, in assay [1], the GI50 is under 0.01 µM; the TGI is 1.59 µM and 1.33 µM. In assay [2], the GI50 is under 0.01 µM and the TGI is under 0.01 µM.
As to `Cc1[nH]ncc1-c1cc2nc(C3CC4CCN3CC4)[nH]c(=O)c2s1` (stereo not given), in assay [1], the GI50 is 2.58 µM and the TGI is over 100 µM. Besides, in assay [2], the GI50 was 4.45 µM and the TGI stood at 30 µM.
As to `O=C(/C=C/c1ccc(B(O)O)cc1)/C=C/c1ccc(B(O)O)cc1`, in assay [1], the GI50 is 0.415 µM and the TGI is 3.89 µM. Moreover, in assay [2], the GI50 was 1.9 µM and the TGI worked out at 4.24 µM.
On the same counts, the results for `Cc1ccccc1NC(=S)Nc1ccccn1` are over 100 µM, over 100 µM, over 100 µM and over 100 µM.
